# According to patent publication US7709636B2, “Pyrazole sulfonylurea compound and herbicide” (Nissan Chemical Industries, Ltd., priority 2004, dated 2010):
# Assays:
# [1] = system: rice transplanted at a depth of 0 cm; test: Herbicidal effect test in submerged condition by treatment before weed-generation (2); assay type: in vivo, Oryza sativa; settings: 0.3 g/a; submerged paddy soil pot, seedlings fixed to paddy surface with roots exposed; 3 weeks after treatment
# Protocol: (§1) Herbicidal Effect Test in Submerged Condition by Treatment Before Weed-Generation (2)
# (§2) Paddy surface soil was placed in a plastic pot of 1/10000 are, water was poured therein and mixed. After seeds of Scirpus juncoides were sown, paddy surface soil was added by 2 cm, and submerged with water, and then seeds of Echinochloa crus-galli, Scirpus juncoides, Monochoria vaginalis, Rotala indica and Lindernia pyxidaria were sown together. In addition, rice seedlings at 2.5th leaf stage were transplanted, and fixed to the paddy surface in a state where the roots were exposed on the other side. On the day when the seeds were sown, the wettable powder of the present invention prepared according to Formulation Example 1 was diluted with water so as to give a predetermined formulation amount, and the surface of the water was treated with the diluted wettable powder. The plants were grown by putting the pot in a green house at 25 to 30° C. The herbicidal effect for each plant was investigated 3 weeks after treatment with the herbicide according to the criteria indicated in Test Example 1.
# Lindernia pyxidaria = test: as above; assay type: in vivo; settings: 0.3 g/a; submerged paddy soil pot, water surface treated on day of sowing; 3 weeks after treatment
# Protocol: as §1, §2
# [2] = system: transplanted rice (Oryza sativa); test: as above; assay type: in vivo; settings: 0.3 g/a; submerged paddy soil pot, rice seedlings at 2.5th leaf stage transplanted; 3 weeks after treatment
# Protocol: as §1, §2
# Scirpus juncoides = test: as above; assay type: in vivo; settings: 0.3 g/a; submerged paddy soil pot, water surface treated on day of sowing; 3 weeks after treatment
# Protocol: as §1, §2
# Rotala indica = test: as above; assay type: in vivo; settings: 0.3 g/a; submerged paddy soil pot, water surface treated on day of sowing; 3 weeks after treatment
# Protocol: as §1, §2
# Monochoria vaginalis = test: as above; assay type: in vivo; settings: 0.3 g/a; submerged paddy soil pot, water surface treated on day of sowing; 3 weeks after treatment
# Protocol: as §1, §2
# Echinochloa crus-galli = test: as above; assay type: in vivo; settings: 0.3 g/a; submerged paddy soil pot, water surface treated on day of sowing; 3 weeks after treatment
# Protocol: as §1, §2
# [3] = system: transplanted rice (Oryza sativa); test: Crop injury test on rice in water leakage condition; assay type: in vivo; settings: 0.15 g/a; water leakage 2 cm/day x 3 days; treated on third day after transplantation; 3 weeks after treatment
# Protocol: Crop Injury Test on Rice in Water Leakage Condition A mixed soil of alluvial soil and diluvial soil was placed in a plastic pot perforated at the bottom of 1/10000 are, water was poured therein and mixed, and then rice seedlings at 2.5th leaf stage were transplanted. Water leakage treatment was carried out by placing the pot in a plastic vat, and controlling the amount of water in the vat kept at a condition of 2 cm/day×3 days. The pot was put in a green house at 25 to 30° C., on third day after transplantation, the wettable powder of the present invention prepared according to Formulation Example 1 was diluted with water so as to give a predetermined formulation amount, and the surface of the water was treated with the diluted wettable powder. The crop injury on rice was investigated 3 weeks after treatment with the herbicide according to the criteria indicated in Test Example 1.
# Polygonum blumei = test: Herbicidal effect test by soil treatment; assay type: in vivo; settings: 1.6 g/a, 3 weeks after treatment
# How it was run: (§3)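 Sow seed in sterilized diluvial soil; cover with about 1.5 cm soil; spray surface uniformly with wettable powder diluted in water to the predetermined amount; rate herbicidal effect after 3 weeks.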
# Amaranthus retroflexus = test: Herbicidal effect test by soil treatment; assay type: in vivo; settings: 1.6 g/a, 3 weeks after treatment
# How it was run: as §3
# [4] = system: Triticum aestivum (wheat); test: Herbicidal effect test by soil treatment; assay type: in vivo; settings: 1.6 g/a, 3 weeks after treatment
# How it was run: as §3
# soybean (Glycine max) = test: Herbicidal effect test by soil treatment; assay type: in vivo; settings: 1.6 g/a, 3 weeks after treatment
# How it was run: as §3
# Beta vulgaris (beet) = test: Herbicidal effect test by soil treatment; assay type: in vivo; settings: 1.6 g/a, 3 weeks after treatment
# How it was run: as §3
# Digitaria adscendes = test: Herbicidal effect test by soil treatment; assay type: in vivo; settings: 1.6 g/a, 3 weeks after treatment
# How it was run: as §3
# Ambrosia elatior = test: Herbicidal effect test by soil treatment; assay type: in vivo; settings: 1.6 g/a, 3 weeks after treatment
# How it was run: as §3
# corn (Zea mays) = test: Herbicidal effect test by soil treatment; assay type: in vivo; settings: 1.6 g/a, 3 weeks after treatment
# How it was run: as §3
# Chenopodium album = test: Herbicidal effect test by soil treatment; assay type: in vivo; settings: 1.6 g/a, 3 weeks after treatment
# How it was run: as §3
smiles,measurement,setting,value
"COc1cc(OC)nc(NC(=O)NS(=O)(=O)c2c(C3=NOCC(C)O3)c(Cl)nn2C)n1 (centres unmarked) [Compound 1, N-((4,6-dimethoxypyrimidin-2-yl)aminocarbonyl)-3-chloro-1-methyl-4-(5-methyl-5H,6H-1,4,2-dioxadin-3-yl)pyrazole-5-sulfonamide]","herbicidal effect, g: rice transplanted at a depth of 0 cm",[1],0 (Herbicidal rate 5% or less (little effect))
same,"herbicidal effect, O: Lindernia pyxidaria",Lindernia pyxidaria,5 (Herbicidal rate 90% or more (almost complete death))
same,"herbicidal effect, a: transplanted rice (Oryza sativa)",[2],0 (Herbicidal rate 5% or less (little effect))
same,"herbicidal effect, B: Scirpus juncoides",Scirpus juncoides,5 (Herbicidal rate 90% or more (almost complete death))
same,"herbicidal effect, N: Rotala indica",Rotala indica,5 (Herbicidal rate 90% or more (almost complete death))
same,"herbicidal effect, C: Monochoria vaginalis",Monochoria vaginalis,5 (Herbicidal rate 90% or more (almost complete death))
same,"herbicidal effect, A: Echinochloa crus-galli",Echinochloa crus-galli,5 (Herbicidal rate 90% or more (almost complete death))
same,"crop injury on rice, a: transplanted rice (Oryza sativa)",[3],0 (Herbicidal rate 5% or less (little effect))
same,"herbicidal effect, L: Polygonum blumei",Polygonum blumei,5 (Herbicidal rate 90% or more (almost complete death))
same,"herbicidal effect, J: Amaranthus retroflexus",Amaranthus retroflexus,5 (Herbicidal rate 90% or more (almost complete death))
same,"herbicidal effect, e: Triticum aestivum (wheat)",[4],5 (Herbicidal rate 90% or more (almost complete death))
same,"herbicidal effect, c: soybean (Glycine max)",soybean (Glycine max),5 (Herbicidal rate 90% or more (almost complete death))
same,"herbicidal effect, f: Beta vulgaris (beet)",Beta vulgaris (beet),5 (Herbicidal rate 90% or more (almost complete death))
same,"herbicidal effect, D: Digitaria adscendes",Digitaria adscendes,4 (Herbicidal rate 70% or more and less than 90%)
same,"herbicidal effect, I: Ambrosia elatior",Ambrosia elatior,5 (Herbicidal rate 90% or more (almost complete death))
same,"herbicidal effect, b: corn (Zea mays)",corn (Zea mays),5 (Herbicidal rate 90% or more (almost complete death))
same,"herbicidal effect, K: Chenopodium album",Chenopodium album,5 (Herbicidal rate 90% or more (almost complete death))
